The results in this text go back to patent US11584747B2, “Substituted pyridopyrimidinonyl compounds useful as T cell activators” (BRISTOL-MYERS SQUIBB COMPANY, priority 2019, dated 2023).

A word on the IC50: it is the concentration at which inhibition is half-maximal. The EC50 is the concentration giving half of the maximal effect.

The target of experiment [1] is human DGKζ (Homo sapiens (Human), UniProt Q13574). Briefly: DGKζ LIPGLO assay (extruded liposome substrate, ADP-Glo luminescence). Type of experiment: biochemical.
For experiment [2], the target named is human DGKα (Homo sapiens (Human), UniProt P23743). Description: DGKα ADPGLO assay (detergent/lipid micelle substrate). Type of experiment: biochemical. On the procedure:
DGK Alpha ADPGLO (Truncated) IC50 (uM)
The detergent/lipid micelle was prepared by combining 15 g phosphatidylserine (Avanti 840035P) and 1 g diacylglycerol (8008110) and dissolving into 150 mL chloroform in a 2 L round bottom flask. Chloroform was removed under high vacuum by rotary evaporation. […] The lipid/detergent solution was split into 5 mL aliquots and stored at −80° C.
A general note: ADP-Glo turns the ADP formed in a reaction into a luminescent signal.

Experiment [3] has as its system human venous whole blood (IFN-γ). Description: Human whole blood IFN-γ assay. It is filed as cell-based. On the procedure:
Human venous whole blood (22.5 μL per well), obtained from healthy donors, was pre-treated with compounds for one hour at 37° C. in a humidified 95% air/5% CO2 incubator. The blood was stimulated with 2.5 μL anti-human CD3 and anti-CD28 mAb at a final concentration of 1 μg/mL each for 24 hours at 37° C. IFN-γ in the supernatants was measured using AlphLISA kit (Cat #AL217).

Setting [4] is: liposome (LIPGLO) assay, read-out: DGK zeta (liposome assay) IC50.
Setting [5] is: ADPGLO assay, read-out: DGK alpha ADPGLO IC50.
Where [6] appears, read: liposome assay, read-out: DGK zeta LIPGLO IC50.
[7] abbreviates: truncated DGK alpha, read-out: DGK alpha ADPGLO (Truncated) IC50.
Setting [8] is: Homo sapiens, whole blood, normalized to 3 μM reference compound as 100% activation, read-out: IFN-γ Whole Blood Normalized EC50.
The mark [9] stands for this setting: whole blood, normalized to 3 μM reference compound as 100% activation, read-out: IFN-γ Whole Blood Normalized EC50.
[10] abbreviates: Homo sapiens, 24 h, human whole blood, anti-CD3 plus anti-CD28 stimulation, 24 hours, read-out: IFN-γ Whole Blood EC50.

Where two headings read alike, the source gives them in different places.

human DGKα, sequence (P23743 whole entry, looked up, the tested form may be a part): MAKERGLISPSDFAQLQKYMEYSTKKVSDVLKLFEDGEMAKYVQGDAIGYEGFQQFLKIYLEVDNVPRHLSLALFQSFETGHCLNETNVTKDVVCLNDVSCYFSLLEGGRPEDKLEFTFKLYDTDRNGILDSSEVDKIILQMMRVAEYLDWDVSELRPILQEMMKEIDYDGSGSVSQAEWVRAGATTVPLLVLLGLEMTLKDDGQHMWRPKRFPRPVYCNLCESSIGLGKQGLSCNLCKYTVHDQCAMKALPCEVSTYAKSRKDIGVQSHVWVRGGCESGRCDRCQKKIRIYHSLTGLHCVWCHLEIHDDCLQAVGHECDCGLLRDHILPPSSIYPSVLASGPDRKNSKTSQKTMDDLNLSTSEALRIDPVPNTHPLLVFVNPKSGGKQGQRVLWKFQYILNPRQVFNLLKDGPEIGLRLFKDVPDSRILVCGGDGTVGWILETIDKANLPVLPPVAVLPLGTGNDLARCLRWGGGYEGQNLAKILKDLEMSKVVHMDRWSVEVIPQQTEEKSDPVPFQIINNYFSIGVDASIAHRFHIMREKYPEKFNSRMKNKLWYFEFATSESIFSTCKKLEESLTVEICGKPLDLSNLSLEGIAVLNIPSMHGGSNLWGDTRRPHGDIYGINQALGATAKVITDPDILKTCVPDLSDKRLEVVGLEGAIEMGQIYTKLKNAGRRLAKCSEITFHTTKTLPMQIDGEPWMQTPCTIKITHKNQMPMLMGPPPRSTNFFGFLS
human DGKζ, sequence (Q13574 other isoform, or with tags, fused parts or gaps): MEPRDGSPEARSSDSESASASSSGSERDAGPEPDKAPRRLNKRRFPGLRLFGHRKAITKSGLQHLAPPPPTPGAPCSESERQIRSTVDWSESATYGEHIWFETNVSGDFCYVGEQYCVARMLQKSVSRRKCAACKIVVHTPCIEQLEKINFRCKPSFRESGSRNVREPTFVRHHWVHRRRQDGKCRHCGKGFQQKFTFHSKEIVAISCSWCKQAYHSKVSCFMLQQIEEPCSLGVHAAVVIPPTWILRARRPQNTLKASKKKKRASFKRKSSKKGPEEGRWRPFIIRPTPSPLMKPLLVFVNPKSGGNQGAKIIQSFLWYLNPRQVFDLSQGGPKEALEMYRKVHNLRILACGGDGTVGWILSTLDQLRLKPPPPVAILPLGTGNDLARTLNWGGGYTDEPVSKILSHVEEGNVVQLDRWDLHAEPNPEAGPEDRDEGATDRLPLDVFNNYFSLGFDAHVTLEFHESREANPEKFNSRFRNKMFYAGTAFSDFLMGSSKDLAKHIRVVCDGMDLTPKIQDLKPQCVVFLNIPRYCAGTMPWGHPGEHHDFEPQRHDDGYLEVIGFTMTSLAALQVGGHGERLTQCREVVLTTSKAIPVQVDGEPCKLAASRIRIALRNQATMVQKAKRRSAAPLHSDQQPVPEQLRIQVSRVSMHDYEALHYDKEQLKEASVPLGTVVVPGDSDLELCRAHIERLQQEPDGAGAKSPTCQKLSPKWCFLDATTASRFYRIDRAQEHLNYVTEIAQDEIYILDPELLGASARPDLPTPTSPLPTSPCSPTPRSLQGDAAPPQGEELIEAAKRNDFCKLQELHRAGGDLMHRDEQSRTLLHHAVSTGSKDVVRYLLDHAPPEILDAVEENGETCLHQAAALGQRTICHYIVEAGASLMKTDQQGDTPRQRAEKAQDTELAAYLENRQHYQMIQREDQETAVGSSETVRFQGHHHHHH

Turning to `[2H]C([2H])([2H])n1c(=O)nc(N2C[C@@H](CC)N(C(C)c3ccc(C(F)(F)F)cc3)C[C@@H]2C)c2nc(C#N)ccc21` (single isomer, unassigned) [Example 420], the values for the IC50 in experiment [1] (setting [4]) and in experiment [2] (setting [5]) were 0.76 µM and 0.09 µM, respectively. For the compound `CCOC(=O)[C@H]1C[C@@H]1Oc1ccc(C(C)N2C[C@H](CC)N(c3nc(=O)n(C)c4ccc(C#N)nc34)C[C@H]2CC)cc1` (stereo partly drawn) [Example 260, ethyl (1S,2S)-2-(4-(1-((2R,5S)-4-(6-cyano-1-methyl-2-oxo-1,2-dihydropyrido[3,2-d]pyrimidin-4-yl)-2,5-diethylpiperazin-1-yl)ethyl)phenoxy)cyclopropane-1-carboxylate], the IC50 in experiment [1] (setting [6]) was found to be 3.03 µM. Consider `CC[C@H]1CN(C(c2ccc(F)cc2)c2cccc(C(F)F)n2)[C@H](CC)CN1c1nc(=O)n(C)c2ccc(C#N)nc12` (stereo partly drawn) [Example 258, 4-((2S,5R)-4((6-(difluoromethyl)pyridin-2-yl)(4-fluorophenyl)methyl)-2,5-diethylpiperazin-1-yl)-1-methyl-2-oxo-1,2-dihydropyrido[3,2-d]pyrimidine-6-carbonitrile], for which the IC50 is 0.36 µM in experiment [1] (setting [6]) and 0.064 µM in experiment [2] (setting [7]). `CC[C@H]1CN(C(C)c2ccc3oc(C4CC4)nc3c2)[C@H](CC)CN1c1nc(=O)n(C)c2ccc(C#N)nc12` (stereo partly drawn) [Example 253, 4-((2S,5R)-4-(1-(2-cyclopropylbenzo[d]oxazol-5-yl)ethyl)-2,5-diethylpiperazin-1-yl)-1-methyl-2-oxo-1,2-dihydropyrido[3,2-d]pyrimidine-6-carbonitrile]: the IC50 in experiment [1] (setting [6]) was determined as 0.097 µM; in experiment [2] (setting [7]), 3.8 µM. In the case of `CC[C@H]1CN(C(C)c2ccc(C(F)(F)F)cc2)[C@H](CC)CN1c1nc(=O)n(C)c2ccc(COC)nc12` (single isomer, unassigned) [Example 424], the IC50 came to 4.59 µM in experiment [1] (setting [4]) and 114 µM in experiment [2] (setting [5]).

As for `CCOc1ccc(CN2C[C@H](C)N(c3nc(=O)n(C)c4ccc(C#N)nc34)C[C@H]2CC)cc1` [Example 310, 4-((2S,5R)-4-(4-ethoxybenzyl)-5-ethyl-2-methylpiperazin-1-yl)-1-methyl-2-oxo-1,2-dihydropyrido[3,2-d]pyrimidine-6-carbonitrile], the IC50 in experiment [1] (setting [4]) amounted to 0.28 µM; in experiment [2] (setting [5]), 0.077 µM.

For `CCC(c1ccc(C2CC2)cc1F)N1C[C@H](C)N(c2nc(=O)n(C)c3ccc(C#N)nc23)C[C@H]1C` (stereo partly drawn) [Example 381, 4-((2S,5R)-4-(1-(4-cyclopropyl-2-fluorophenyl)propyl)-2,5-dimethylpiperazin-1-yl)-1-methyl-2-oxo-1,2-dihydropyrido[3,2-d]pyrimidine-6-carbonitrile], the IC50 in experiment [1] (setting [4]) was 3.41 µM; in experiment [2] (setting [5]) it was 0.85 µM. As to `CCC(C1CCC(F)(F)CC1)N1C[C@H](C)N(c2nc(=O)n(C)c3ccc(C#N)nc23)C[C@H]1C` (stereo partly drawn) [Example 459, 4-((2S,5R)-4-(1-(4,4-difluorocyclohexyl)propyl)-2,5-dimethylpiperazin-1-yl)-1-methyl-2-oxo-1,2-dihydropyrido[3,2-d]pyrimidine-6-carbonitrile], the IC50 in experiment [1] (setting [4]) was found to be 23.9 µM; in experiment [2] (setting [5]), 29.8 µM. Taken in the same sequence, the figures for `CCC(c1ccc(C2CC2)cc1)N1C[C@H](C)N(c2nc(=O)n(C)c3ccc(C#N)nc23)C[C@H]1C` (stereo partly drawn) [Example 378, 4-((2S,5R)-4-(1-(4-cyclopropylphenyl)propyl)-2,5-dimethylpiperazin-1-yl)-1-methyl-2-oxo-1,2-dihydropyrido[3,2-d]pyrimidine-6-carbonitrile] were 0.15 µM and 0.16 µM. Taken in the same sequence, the figures for `CC[C@H]1CN(C(C)c2ccc(C(F)(F)F)cc2)[C@H](CC)CN1c1nc(=O)n(C)c2ccc(COC)nc12` (single isomer, unassigned) [Example 425] were 12.5 µM and 83.3 µM. `C[C@@H]1CN(c2nc(=O)n(C)c3ccc(C#N)nc23)[C@@H](C)CN1C(c1ccc(F)cc1)c1ccc(C(F)(F)F)cn1` (stereo in doubt) [Example 126]: the EC50 in experiment [3] (setting [8]) came to 0.68 µM. Take `CCC(c1ccc(C(F)(F)F)cc1)N1C[C@H](CC)N(c2nc(=O)n(C)c3ccc(C#N)nc23)C[C@H]1CC` (single isomer, unassigned) [Example 5]: in experiment [2] (setting [7]), the IC50 is 0.064 µM. On to `CCCC(c1ccc(C(F)(F)F)cc1)N1C[C@H](CC)N(c2nc(=O)n(C)c3ccc(C#N)nc23)C[C@H]1CC` (stereo partly drawn) [Example 244, 4-((2S,5R)-2,5-Diethyl-4-(1-(4-(trifluoromethyl)phenyl)butyl)piperazin-1-yl)-1-methyl-2-oxo-1,2-dihydropyrido[3,2-d]pyrimidine-6-carbonitrile], for which the EC50 in experiment [3] (setting [9]) was 13.3 µM. For `CCC(C1CC1)N1C[C@H](C)N(c2nc(=O)n(C)c3ccc(C#N)nc23)C[C@H]1C` (stereo partly drawn) [Example 454, 4-((2S,5R)-4-(1-cyclopropylpropyl)-2,5-dimethylpiperazin-1-yl)-1-methyl-2-oxo-1,2-dihydropyrido[3,2-d]pyrimidine-6-carbonitrile], the IC50 in experiment [1] (setting [4]) stood at 28.8 µM; in experiment [2] (setting [5]), 14.2 µM.

Take `CCC(c1ccc(Br)cc1)N1C[C@H](C)N(c2nc(=O)n(C)c3ccc(C#N)nc23)C[C@H]1CC` (stereo partly drawn) [Example 321, 4-((2 S,5R)-4-(1-(4-bromophenyl)propyl)-5-ethyl-2-methylpiperazin-1-yl)-1-methyl-2-oxo-1,2-dihydropyrido[3,2-d]pyrimidine-6-carbonitrile]: the results for the IC50 in experiment [1] (setting [4]) and in experiment [2] (setting [5]) were 0.038 µM and 0.01 µM, respectively.

Consider `CCC(c1ccc(OC(F)F)cc1)N1C[C@H](CC)N(c2nc(=O)n(C)c3ccc(C#N)nc23)C[C@H]1CC` (stereo partly drawn) [Example 222, 4-((2S,5R)-4-(1-(4-(difluoromethoxy)phenyl)propyl)-2,5-diethylpiperazin-1-yl)-1-methyl-2-oxo-1,2-dihydropyrido[3,2-d]pyrimidine-6-carbonitrile], for which the IC50 was found to be 0.017 µM in experiment [1] (setting [6]) and 0.002 µM in experiment [2] (setting [7]). As for `CC[C@@H]1CN(c2nc(=O)n(C)c3ccc(C#N)nc23)[C@@H](C)CN1C(c1ccc(F)cc1)c1cc(C2CC2)on1` (single isomer, unassigned) [Example 102], the IC50 in experiment [1] (setting [6]) worked out at 0.094 µM. For `CCC(C1CC1)N1C[C@H](C)N(c2nc(=O)n(C)c3ccc(C#N)nc23)C[C@H]1C` (stereo partly drawn) [Example 453, 4-((2S,5R)-4-(1-cyclopropylpropyl)-2,5-dimethylpiperazin-1-yl)-1-methyl-2-oxo-1,2-dihydropyrido[3,2-d]pyrimidine-6-carbonitrile], the figures for the IC50 in experiment [1] (setting [4]) and in experiment [2] (setting [5]) were 79.4 µM and 215 µM, respectively.

Take `CC[C@H]1CN(C(C)c2ccc(C(F)(F)F)cc2)[C@H](CC)CN1c1nc(=O)n(C)c2ccc(OCCN(C)C)nc12` (stereo partly drawn) [Example 432, 4-((2S,5R)-2,5-diethyl-4-(1-(4-(trifluoromethyl)phenyl)ethyl)piperazin-1-yl)-6-(2-(dimethylamino)ethoxy)-1-methylpyrido[3,2-d]pyrimidin-2(1H)-one]: the IC50 in experiment [1] (setting [4]) came out at 41.7 µM. Besides, the EC50 in experiment [3] (human whole blood, anti-CD3 plus anti-CD28 stimulation, 24 hours, read-out: IFN-γ Whole Blood EC50) was found to be 20 µM. On to `CCC[C@@H]1CN(c2nc(=O)n(C)c3ccc(C#N)nc23)[C@@H](C)CN1C(C)c1ccc(C(F)(F)F)cc1` (single isomer, unassigned) [Example 396], for which, in experiment [2] (setting [5]), the IC50 was determined as 0.92 µM. Take `CCOc1ccc2c(n1)c(N1C[C@@H](CC)N(C(C)c3ccc(C(F)(F)F)cc3)C[C@@H]1CC)nc(=O)n2C` (stereo partly drawn) [Example 429, 4-((2S,5R)-2,5-diethyl-4-(1-(4-(trifluoromethyl)phenyl)ethyl)piperazin-1-yl)-6-ethoxy-1-methylpyrido[3,2-d]pyrimidin-2(1H)-one]: the IC50 in experiment [1] (setting [4]) was 99.5 µM. Moreover, the EC50 in experiment [3] (setting [10]) worked out at 20 µM. Taken in the same sequence, the figures for `CC[C@H]1CN(C(C)c2ccc(C(F)(F)F)cc2)[C@H](CC)CN1c1nc(=O)n(C)c2ccc(OC)nc12` (single isomer, unassigned) [Example 428] were 125 µM and 20 µM. As for `CC[C@H]1CN(C(C)c2ccc(OC(F)(F)F)cc2F)[C@H](CC)CN1c1nc(=O)n(C)c2ccc(C#N)nc12` (single isomer, unassigned) [Example 39], in experiment [1] (setting [6]), the IC50 was found to be 0.77 µM. Also, the EC50 in experiment [3] (setting [9]) is 2.73 µM.

Take `CC[C@@H]1CN(c2nc(=O)n(C)c3ccc(C#N)nc23)[C@@H](C)CN1Cc1ccc2c(c1)OC(F)(F)O2` [Example 55, 4-((2S,5R)-((2,2-difluorobenzo[d][1,3]dioxol-5-yl)methyl)-5-ethyl-2-methylpiperazin-1-yl)-1-methyl-2-oxo-1,2-dihydropyrido[3,2-d]pyrimidine-6-carbonitrile]: the EC50 in experiment [3] (setting [8]) came out at 0.79 µM. Take `CC[C@@H]1CN(c2nc(=O)n(C)c3ccc(C#N)nc23)[C@@H](C)CN1C(C)c1ccc(C(F)(F)F)cc1` (single isomer, unassigned) [Example 7]: in experiment [2] (setting [7]), the IC50 amounted to 0.18 µM. In the case of `CC[C@H]1CN(C(C)c2ccc(N3CCCC3=O)cc2)[C@H](CC)CN1c1nc(=O)n(C)c2ccc(C#N)nc12` (stereo partly drawn) [Example 231, 4-((2S,5R)-2,5-diethyl-4-(1-(4-(2-oxopyrrolidin-1-yl)phenyl)ethyl)piperazin-1-yl)-1-methyl-2-oxo-1,2-dihydropyrido[3,2-d]pyrimidine-6-carbonitrile], the half-maximal effective concentration (EC50) in experiment [3] (setting [9]) is 9.74 µM.
